# Data as given in ChEMBL document CHEMBL1130670, “Potent bicyclic lactam inhibitors of thrombin: Part I: P3 modifications” (Bioorg Med Chem Lett, 1998).
# What was measured:
# [1] = biological target: Prothrombin (Rattus norvegicus) (UniProt P18292)
# Description: Compound was tested for the antithrombic effect in rat arterial thrombosis model and expressed as thrombin time(TT)
# [2] = biological target: Prothrombin (Rattus norvegicus) (UniProt P18292); remark: listed apart in the source
# Description: Compound was tested for the antithrombic effect in rat arterial thrombosis model and expressed as activated partial thromboplastin time(PTT)
# [3] = biological target: Prothrombin (Rattus norvegicus) (UniProt P18292); remark: listed apart in the source
# Description: Compound was tested for the antithrombic effect in rat arterial thrombosis model and expressed as mean occlusion time(MOT)
# Prothrombin = Prothrombin (Homo sapiens, UniProt P00734); assay: Binding affinity against thrombin
# Throughout, for APTT: test concentration or dose not given here.
# Throughout, for TT: test concentration or dose not given here.
SMILES,Ki (Prothrombin) [nM],TT [1] [s],APTT [2] [s],MOT [3] [min]
N=C(N)NCCCC(NC(=O)[C@@H]1CC[C@H]2CN(C(=O)Cc3ccccc3)CC(=O)N21)C(=O)c1nccs1 (some centres undefined),2.5,387,79.2,> 60
N=C(N)NCCCC(NC(=O)[C@@H]1CC[C@H]2CN(C(=O)CCc3ccc(Cl)c(Cl)c3)CC(=O)N21)C(=O)c1nccs1 (some centres undefined),0.106,,,
N=C(N)NCCCC(NC(=O)[C@@H]1CC[C@H]2CN(C(=O)[C@@H](N)Cc3ccc(O)cc3)CC(=O)N21)C(=O)c1nccs1 (stereo in doubt; 32),18,,,
N=C(N)NCCCC(NC(=O)[C@@H]1CC[C@H]2CN(C(=O)C3Cc4ccccc4CN3)CC(=O)N21)C(=O)c1nccs1 (some centres undefined),32,,,
N=C(N)NCCCC(NC(=O)[C@@H]1CC[C@H]2CN(C(=O)[C@@H](O)c3ccccc3)CC(=O)N21)C(=O)c1nccs1 (stereo in doubt; 29) [listing 2 of 2 here],,476,49.1,> 60
N=C(N)NCCCC(NC(=O)[C@@H]1CC[C@H]2CN(CCCc3ccccc3)CC(=O)N21)C(=O)c1nccs1 (some centres undefined),17,122,30.5,28.3
NC(N)=NCCCC(NC(=O)[C@@H]1CC[C@H]2CN(C(=O)[C@@H](N)Cc3c[nH]c4ccccc34)CC(=O)N21)C(=O)c1nccs1 (stereo in doubt; 34) [listing 1 of 2 here],,929,188,> 60
N=C(N)NCCCC(NC(=O)[C@@H]1CC[C@H]2CN(C(=O)CCCc3ccccc3)CC(=O)N21)C(=O)c1nccs1 (some centres undefined),1.2,494,120,> 60
N=C(N)NCCCC(NC(=O)[C@@H]1CC[C@H]2CN(C(=O)CCc3ccccc3)CC(=O)N21)C(=O)c1nccs1 (some centres undefined),,381,44.3,42.2
N=C(N)NCCCC(NC(=O)[C@@H]1CC[C@H]2CN(C(=O)COc3ccccc3)CC(=O)N21)C(=O)c1nccs1 (some centres undefined),16,248,31.5,37.8
NC(N)=NCCCC(NC(=O)[C@@H]1CC[C@H]2CN(C(=O)[C@@H](N)Cc3ccc(O)cc3)CC(=O)N21)C(=O)c1nccs1 (stereo in doubt; 32),,433,76,53
N=C(N)NCCCC(NC(=O)[C@@H]1CC[C@H]2CN(C(=O)CCc3ccccn3)CC(=O)N21)C(=O)c1nccs1 (some centres undefined),3,557,44.2,47.6
NC(N)=NCCCC(NC(=O)[C@@H]1CC[C@H]2CN(C(=O)[C@@H](N)Cc3c[nH]c4ccccc34)CC(=O)N21)C(=O)c1nccs1 (stereo in doubt; 33),75.3,,,
N=C(N)NCCCC(NC(=O)[C@@H]1CC[C@H]2CN(C(=O)CCc3ccc4ccccc4c3)CC(=O)N21)C(=O)c1nccs1 (some centres undefined),0.5,,,
Cc1ccc(CCC(=O)N2CC(=O)N3[C@@H](CC[C@H]3C(=O)NC(CCCN=C(N)N)C(=O)c3nccs3)C2)cc1 (some centres undefined),0.5,> 999,88,> 60
N=C(N)NCCCC(NC(=O)[C@@H]1CC[C@H]2CN(C(=O)CCC3CCCCC3)CC(=O)N21)C(=O)c1nccs1 (some centres undefined),24,320,52.4,25.4
N=C(N)NCCCC(NC(=O)[C@@H]1CC[C@H]2CN(C(=O)c3ccccc3)CC(=O)N21)C(=O)c1nccs1 (some centres undefined),,144,25.5,45.8
N=C(N)NCCCC(NC(=O)[C@@H]1CC[C@H]2CN(C(=O)[C@@H](N)Cc3ccc(O)cc3)CC(=O)N21)C(=O)c1nccs1 (stereo in doubt; 31),160,,,
NC(N)=NCCCC(NC(=O)[C@@H]1CC[C@H]2CN(C(=O)[C@@H](N)Cc3c[nH]c4ccccc34)CC(=O)N21)C(=O)c1nccs1 (stereo in doubt; 34) [listing 2 of 2 here],0.96,,,

# The next lines start with results.
Ki (Prothrombin) [nM],SMILES,TT [1] [s],APTT [2] [s],MOT [3] [min]
3,NC(N)=NCCCC(NC(=O)[C@@H]1CC[C@H]2CN(C(=O)[C@@H](N)Cc3ccc(F)cc3)CC(=O)N21)C(=O)c1nccs1 (some centres undefined),557,44.2,47.7
16,N=C(N)NCCCC(NC(=O)[C@@H]1CC[C@H]2CN(C(=O)[C@@H](O)c3ccccc3)CC(=O)N21)C(=O)c1nccs1 (stereo in doubt; 29) [listing 1 of 2 here],,,
4.4,N=C(N)NCCCC(NC(=O)[C@@H]1CC[C@H]2CN(C(=O)[C@@H](O)Cc3ccccc3)CC(=O)N21)C(=O)c1nccs1 (some centres undefined),679,463,> 60
50,N=C(N)NCCCC(NC(=O)[C@@H]1CC[C@H]2CN(C(=O)OCc3ccccc3)CC(=O)N21)C(=O)c1nccs1 (some centres undefined),,,
0.5,COc1ccc(CCC(=O)N2CC(=O)N3[C@@H](CC[C@H]3C(=O)NC(CCCN=C(N)N)C(=O)c3nccs3)C2)cc1 (some centres undefined),633,55.2,> 60
0.92,N=C(N)NCCCC(NC(=O)[C@@H]1CC[C@H]2CN(C(=O)CCc3ccccc3F)CC(=O)N21)C(=O)c1nccs1 (some centres undefined),,,
5,N=C(N)NCCCC(NC(=O)[C@@H]1CC[C@H]2CN(C(=O)CCOc3ccccc3)CC(=O)N21)C(=O)c1nccs1 (some centres undefined),276,45.2,47.7
0.35,N=C(N)NCCCC(NC(=O)[C@@H]1CC[C@H]2CN(C(=O)CCc3cccc4ccccc34)CC(=O)N21)C(=O)c1nccs1 (some centres undefined),> 600,217,33.2
0.5,N=C(N)NCCCC(NC(=O)[C@@H]1CC[C@H]2CN(C(=O)CCc3ccccc3C(F)(F)F)CC(=O)N21)C(=O)c1nccs1 (some centres undefined),> 999,90,> 60
84,N=C(N)NCCCC(NC(=O)[C@@H]1CC[C@H]2CN(C(=O)[C@@H](O)c3ccccc3)CC(=O)N21)C(=O)c1nccs1 (stereo in doubt; 28),,,
58,N=C(N)NCCCC(NC(=O)[C@@H]1CC[C@H]2CN(C(=O)NCc3ccccc3)CC(=O)N21)C(=O)c1nccs1 (some centres undefined),,,
